Test results taken from patent US4585866A, “Treatment of migraine with substituted tropyl benzoate derivatives” (Merrell Dow Pharmaceuticals Inc., priority 1984, dated 1986).

Key:
5-HT M-receptor [1] = biological target: T1, 5-HT M-receptor (Oryctolagus cuniculus, UniProt A0A5F9C9J3); assay: pA2 against 5-HT in isolated rabbit heart; assay type: cell-based; conditions: isolated rabbit heart; negative log of molar concentration of antagonist reducing effect of twice the ED50 of 5-HT to that of the ED50; read-out: pA2 5-HT (converted)
T1 construct: determining their pA2 values in the isolated rabbit heart; from tissue; host or cells: isolated rabbit heart (receptor on the cardiac neurones)
T1 sequence (A0A5F9C9J3 1-494): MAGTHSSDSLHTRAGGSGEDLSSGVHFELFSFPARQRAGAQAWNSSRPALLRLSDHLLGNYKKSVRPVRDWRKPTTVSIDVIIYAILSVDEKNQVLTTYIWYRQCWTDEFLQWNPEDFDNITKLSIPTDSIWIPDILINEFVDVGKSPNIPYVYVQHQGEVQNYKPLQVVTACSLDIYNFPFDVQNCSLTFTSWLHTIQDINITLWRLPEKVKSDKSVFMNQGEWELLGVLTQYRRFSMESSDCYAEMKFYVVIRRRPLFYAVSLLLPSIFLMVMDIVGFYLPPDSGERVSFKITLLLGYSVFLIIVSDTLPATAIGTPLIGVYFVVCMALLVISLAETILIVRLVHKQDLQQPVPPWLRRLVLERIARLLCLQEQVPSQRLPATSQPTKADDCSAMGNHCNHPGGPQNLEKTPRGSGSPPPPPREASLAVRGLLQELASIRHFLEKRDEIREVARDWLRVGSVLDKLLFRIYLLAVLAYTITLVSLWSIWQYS
Description: The activity of the compounds against 5-HT can be assessed by determining their pA2 values in the isolated rabbit heart as described by J. R. Fozard et al, Eur. J. Pharmacol., 59, 195-210 (1979). In the method described, the molar concentration of antagonist which reduces the effects of twice the ED50 of 5-HT to that of the ED50 in the absence of antagonist is determined. The pA2 value is the negative logarithm of said molar concentrations.

5-HT D-receptor = conditions: at the doses used clinically for the treatment of migraine; cited from earlier work
5-HT M-receptor [2] = biological target: T1, 5-HT M-receptor; conditions: reported by J. R. Fozard et al, Eur. J. Pharmacol. 1979 / 1978; cited from earlier work

Structure (SMILES)	Kb (5-HT M-receptor [1]) [nM]	also measured
CN1[C@@H]2CC[C@H]1C[C@@H](OC(=O)c1cccc(Cl)c1)C2 [tropyl 3-chlorobenzoate]	2.51	–
Cc1cccc(C(=O)O[C@H]2C[C@H]3CC[C@@H](C2)N3C)c1 [tropyl 3-methylbenzoate]	6.31	–
Cc1ccc(C(=O)O[C@H]2C[C@H]3CC[C@@H](C2)N3C)cc1 [tropyl 4-methylbenzoate, reference compound]	15.8	–
CN(C)CCC=C1c2ccccc2CCc2ccccc21 [amitriptyline]	–	5-HT D-receptor antagonism (5-HT D-receptor): 5-HT D-receptor antagonists
COC(=O)C1C2CCC(CC1OC(=O)c1ccccc1)N2 (single isomer, unassigned) [nor(-) cocaine]	–	pA2 value (5-HT) (5-HT M-receptor [2]): 7.7
COc1cc(C(=O)O[C@H]2C[C@H]3CC[C@@H](C2)N3C)cc(OC)c1OC [tropyl 3,4,5-trimethoxybenzoate]	3.16	–
O=C(O[C@H]1C[C@H]2CC[C@@H](C1)N2)c1cc(Cl)cc(Cl)c1 [nortropyl 3,5-dichlorobenzoate, reference compound]	15.8	–
